Test results reported in paper PMC2880635 (Biochemistry, 2009).
Where a chain is given by its changes, count along the chain named. Blank lines part the entries; values can stand above or below the molecule they belong to.

Assays:
Sts-2PGM(E481V) = target: T1, Sts-2PGM(E481V) (Mus musculus, UniProt Q3V3E1, E481V); assay: pNPP hydrolysis by Sts-2PGM; type: biochemical; conditions: substrate pNPP
T1 sequence (Q3V3E1 354-624 E481V): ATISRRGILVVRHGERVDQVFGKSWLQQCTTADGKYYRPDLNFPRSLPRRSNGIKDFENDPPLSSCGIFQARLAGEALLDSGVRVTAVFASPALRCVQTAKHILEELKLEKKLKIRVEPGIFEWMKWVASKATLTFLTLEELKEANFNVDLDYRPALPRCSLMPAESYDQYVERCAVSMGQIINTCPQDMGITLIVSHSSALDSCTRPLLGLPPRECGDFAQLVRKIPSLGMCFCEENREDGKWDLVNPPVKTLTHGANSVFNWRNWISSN

Sts-2PGM [1] = target: T2, Sts-2PGM (Mus musculus, UniProt Q3V3E1); assay: pNPP hydrolysis by wild-type Sts-2PGM; type: biochemical; conditions: substrate pNPP, Sts-2PGM wild-type
T2 sequence (Q3V3E1 354-624): T1 sequence (Q3V3E1 354-624 E481V) with V128E

Sts-2PGM(S552A/S582Y) = target: T3, Sts-2PGM(S552A/S582Y) (Mus musculus, UniProt Q3V3E1, S552A/S582Y); assay: pNPP hydrolysis by Sts-2PGM; type: biochemical; conditions: substrate pNPP
T3 sequence (Q3V3E1 354-624 S552A/S582Y): T1 sequence (Q3V3E1 354-624 E481V) with V128E, S199A, S229Y

Sts-2PGM(A446S/S552A) = target: T4, Sts-2PGM(A446S/S552A) (Mus musculus, UniProt Q3V3E1, A446S/S552A); assay: pNPP hydrolysis by Sts-2PGM; type: biochemical; conditions: substrate pNPP, pH 7.5, relative to Sts-2PGM
T4 sequence (Q3V3E1 354-624 A446S/S552A): T1 sequence (Q3V3E1 354-624 E481V) with A93S, V128E, S199A

Sts-1PGM = Sts-1PGM (Mus musculus, UniProt Q8BGG7); assay: pNPP hydrolysis by Sts-1PGM; type: biochemical; conditions: substrate pNPP
Chain of Sts-1PGM (Q8BGG7 369-638 limits assumed): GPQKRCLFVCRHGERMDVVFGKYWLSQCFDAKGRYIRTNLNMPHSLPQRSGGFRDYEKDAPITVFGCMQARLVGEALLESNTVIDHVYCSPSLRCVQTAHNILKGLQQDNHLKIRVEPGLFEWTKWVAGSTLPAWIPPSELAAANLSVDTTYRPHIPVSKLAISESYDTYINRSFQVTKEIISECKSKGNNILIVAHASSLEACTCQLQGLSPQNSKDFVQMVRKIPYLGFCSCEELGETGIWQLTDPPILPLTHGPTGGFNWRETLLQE

Sts-2PGM [2] = target: T2, Sts-2PGM; assay: biochemical

relative activity (Sts-2PGM(E481V); pH 5.0, relative to Sts-2PGM): 207% | relative activity (Sts-2PGM(E481V); pH 7.5, relative to Sts-2PGM): 10% | kcat (Sts-2PGM [1]; pH 5.0, 37 °C): 0.3 s⁻¹ | relative activity (Sts-2PGM [1]; pH 5.0, relative to Sts-2PGM): 13.0% | relative activity (Sts-2PGM [1]; pH 7.5 (reference)): 1% | Km (Sts-2PGM(S552A/S582Y); pH 5.0, 37 °C): 600 µM | kcat (Sts-2PGM(S552A/S582Y); pH 5.0, 37 °C): 2.9 s⁻¹ | relative activity (Sts-2PGM(S552A/S582Y); pH 5.0, relative to Sts-2PGM): 312% | relative activity (Sts-2PGM(A446S/S552A)): 28% | kcat (Sts-1PGM; pH 5.0, 37 °C): 63.4 s⁻¹ | relative activity (Sts-1PGM; pH 5.0, relative to Sts-2PGM): 210000% | kcat (Sts-1PGM; pH 7.5, 37 °C): 70 s⁻¹ | relative activity (Sts-1PGM; pH 7.5, relative to Sts-2PGM): 9400%
Structure (SMILES): O=[N+]([O-])c1ccc(OP(=O)(O)O)cc1 [pNPP, p-nitrophenyl phosphate]

IC50 (Sts-2PGM [2]): 52 ± 6.2 mM | Ki (Sts-2PGM [2]): 35.1 ± 4.1 mM
Structure (SMILES): O=P(O)(O)O [phosphate]

IC50 (Sts-2PGM [2]): 0.82 ± 0.1 mM | Ki (Sts-2PGM [2]): 0.54 ± 0.07 mM
Structure (SMILES): [O]=[W](=[O])([OH])[OH] [tungstate, sodium tungstate]

Structure (SMILES): [O]=[V]([OH])([OH])[OH] [vanadate, sodium vanadate]
IC50 (Sts-2PGM [2]): 5.3 ± 3.3 mM | Ki (Sts-2PGM [2]): 3.55 ± 2.3 mM
